Test results reported in patent US7595401B2, “Therapeutic compounds and their use in cancer” (Myriad Pharmaceuticals, Inc., priority 2006, dated 2009).
pIC50: −log10 of the molar value.

Target: purified human Hsp90
Experiment: Binding Assay: fluorescence polarization with BODIPY-labeled geldanamycin
Details: BODIPY-GM 10 nM, Hsp90 30 nM
Summary of the method: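 Fluorescence polarization competition with BODIPY-geldanamycin (10 nM final) and human Hsp90 (30 nM final) in HEPES-KOH pH 7.3 buffer with molybdate, NP-40, DTT; 2% DMSO, overnight at room temperature. Read 485/530 nm; percent inhibition from mP normalized to DMSO controls, fluorescent-compound points excluded.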

Compound | pIC50 | % Inhibition at 5 μM Compound Concentration
CS(=O)(=O)NC(CCn1c(Sc2cc3c(cc2Br)OCO3)nc2c(N)ncnc21)C1CC1 (stereo not drawn) [Example 674, N-(3-{6-Amino-8-[(6-bromo-1,3-benzodioxol-5-yl)thio]-9H-purin-9-yl}-1-cyclopropylpropyl)methanesulfonamide] | 7.10 | 
CCOC(=O)N1CCCCC1CCn1cnc(N)c2nc(Sc3cc(OC)ccc3OC)nc1-2 (stereo not drawn) [Example 338, 2-{2-[6-amino-8-(2,5-dimethoxy-phenylsulfanyl)-purin-3-yl]-ethyl}-piperidine-1-carboxylic acid ethyl ester] |  | 0%
COc1ccc(OC)c(Sc2nc3c(N)ncn(CCc4cc(C)ccc4C)c-3n2)c1 [Example 116, 8-(2,5-dimethoxy-phenylsulfanyl)-3-[2-(2,5-dimethyl-phenyl)-ethyl]-3H-purin-6-ylamine] |  | 0%
Nc1ncnc2c1nc(Sc1cc3c(cc1Br)OCO3)n2CCC1CCN(C(=O)C2(N)CC2)CC1 [Example 751, 9-(2-{1-[(1-Amino-cyclopropyl)carbonyl]piperidine-4-yl}ethyl)-8-[(6-bromo-1,3-benzodioxol-5-yl)thio]-9H-purin-6-amine] | 6.71 | 
C#CCN1CCC(CCn2c(Sc3cc4c(cc3Br)OCO4)nc3c(N)ncnc32)CC1 [Example 625, 8-[(6-Bromo-1,3-benzodioxol-5-yl)thio]-9-[2-(1-prop-2-yn-1-ylpiperidin-4-yl)ethyl]-9 H-purin-6-amine] | 6.96 | 
Nc1ncnc2c1nc(Sc1cc3c(cc1Br)OCO3)n2CCC1CCCCN1C(=O)OCc1ccccc1 (stereo not drawn) [Example 592, Benzyl 2-(2-{6-amino-8-[(6-bromo-1,3-benzodioxol-5-yl)thio]-9 H-purin-9-yl}ethyl)piperidine-1-carboxylate] | < 5.30 | 
COc1ccc(OC)c(Sc2nc3c(N)ncn(CCc4ccc(Br)cc4)c-3n2)c1 [Example 72, 3-[2-(4-bromo-phenyl)-ethyl]-8-(2,5-dimethoxy-phenylsulfanyl)-3H-purin-6-ylamine] |  | 0%
CC(C)(C)OC(=O)N1CCC(Cn2c(Sc3cc4c(cc3Br)OCO4)nc3c(N)ncnc32)CC1 [Example 639, tert-Butyl 4-({6-amino-8-[(6-bromo-1,3-benzodioxol-5-yl)thio]-9 H-purin-9-yl}methyl)piperidine-1-carboxylate] | 6.05 | 
COc1cc(Sc2nc3c(N)nc(F)nc3n2CCc2ccccc2Cl)cc(OC)c1OC [Example 237, 9-[2-(2-Chlorophenyl)ethyl]-2-fluoro-8-[(3,4,5-trimethoxyphenyl)thio]-9H-purin-6-amine] | < 4.60 | 
Nc1ncn(Cc2ccccc2)c2nc(Sc3cc4c(cc3Br)OCO4)nc1-2 [Example 265, 3-Benzyl-8-[(6-bromo-1,3-benzodioxol-5-yl)thio]-3H-purin-6-amine] |  | 20%
COc1ccc(OC)c(Sc2nc3c(N)ncnc3n2CC(c2ccccc2)C2CCCC2)c1 (stereo not drawn) [Example 103, 9-(2-Cyclopentyl-2-phenyl-ethyl)-8-(2,5-dimethoxy-phenylsulfanyl)-9H-purin-6-ylamine] | < 6.00 | 
CC(C)n1nnnc1N1CCC(CCn2cnc(N)c3nc(Sc4cc5c(cc4Br)OCO5)nc2-3)CC1 [Example 613, 8-[(6-Bromo-1,3-benzodioxol-5-yl)thio]-3-{2-[1-(1-isopropyl-1 H-tetrazol-5-yl)piperidin-4-yl]ethyl}-3 H-purin-6-amine] |  | 15.00%
Nc1ncnc2c1nc(Sc1cc3c(cc1Br)OCO3)n2CCc1c(F)c(F)c(F)c(F)c1F [Example 41, 8-(6-Bromo-benzo[1,3]dioxol-5-ylsulfanyl)-9-(2-pentafluorophenyl-ethyl)-9H-purin-6-ylamine] | 6.30 | 
Nc1ncnc2c1nc(Sc1cc3c(cc1Br)OCO3)n2CCC1CCCCN1S(=O)(=O)C(F)(F)F (stereo not drawn) [Example 396, 8-[(6-Bromo-1,3-benzodioxol-5-yl)thio]-9-(2-{1-[(trifluoromethyl)sulfonyl]piperidin 2-yl}ethyl)-9H-purin-6-amine] | 6.09 | 
N#Cc1cc2c(cc1Sc1nc3c(N)ncn(CCc4ccccc4Cl)c-3n1)OCO2 [Example 327, 6-({6-Amino-3-[2-(2-chlorophenyl)ethyl]-3H-purin-8-yl}thio)-1,3-benzodioxole-5-carbonitrile] |  | 33.0%
COc1ccc(OC)c(Sc2nc3c(N)ncnc3n2CC(c2ccc(Cl)cc2)C(C)C)c1 (stereo not drawn) [Example 119, 9-[2-(4-Chloro-phenyl)-3-methyl-butyl]-8-(2,5-dimethoxy-phenylsulfanyl)-9H-purine-6-ylamine] |  | 15%
COc1ccc(OC)c(Sc2nc3c(N)ncn(CCc4ccc(C(C)=O)cc4)c-3n2)c1 [Example 64, 1-(4-{2-[6-amino-8-(2,5-dimethoxy-phenylsulfanyl)-purin-3-yl]-ethyl}-phenyl)-ethanone] | < 5.30 | 
CCn1nnnc1N1CCC(CCn2c(Sc3cc4c(cc3Br)OCO4)nc3c(N)ncnc32)CC1 [Example 610, 8-[(6-Bromo-1,3-benzodioxol-5-yl)thio]-9-{2-[1-(1-ethyl-1 H-tetrazol-5-yl)piperidin-4-yl]ethyl}-9 H-purin-6-amine] | 7.06 | 

Compound | pIC50 | % Inhibition at 5 μM Compound Concentration
CC(C)(C)OC(=O)NC(CCn1c(Sc2cc3c(cc2Br)OCO3)nc2c(N)ncnc21)C1CCCCC1 (stereo not drawn) [Example 670, tert-Butyl(3-{6-amino-8-[(6-bromo-1,3-benzodioxol-5-yl)thio]-9H-purin-9-yl}-1-cyclohexylpropyl)carbamate] | 5.80 | 
COc1ccc(OC)c(Sc2nc3c(N)ncnc3n2CCc2cc(C)cc(C)c2)c1 [Example 132, 8-(2,5-Dimethoxy-phenylsulfanyl)-9-[2-(3,5-dimethyl-phenyl)-ethyl]-9H-purine-6-ylamine] | 6.30 | 54%
COc1ccc(OC)c(Sc2nc3c(N)ncn(CCC4CCN(C=O)CC4)c-3n2)c1 [Example 359, 4-(2-{6-Amino-8-[(2,5-dimethoxyphenyl)thio]-3H-purin-3-yl}ethyl)piperidine-1-carbaldehyde] |  | 3%
COc1c(F)cc(Sc2nc3c(N)ncn(CCC4CCN(C(C)=O)CC4)c-3n2)cc1Cl [Example 570, 3-[2-(1-Acetylpiperidin-4-yl)ethyl]-8-[(3-chloro-5-fluoro-4-methoxyphenyl)thio]-3 H-purin-6-amine] |  | 0.00%
COc1ccc(OC)c(Sc2nc3c(N)ncnc3n2CCn2cnc3ccccc3c2=O)c1 [Example 271, 3-(2-{6-Amino-8-[(2,5-dimethoxyphenyl)thio]-9H-purin-9-yl}ethyl)quinazolin-4(3 H)-one] | < 4.60 | 
Cc1ccc(C)c(CCn2c(Sc3cc4c(cc3Br)OCO4)nc3c(N)ncnc32)c1 [Example 124, 8-(6-Bromo-benzo[1,3]dioxol-5-ylsulfanyl)-9-[2-(2,5-dimethyl-phenyl)-ethyl]-9H-purin-6-ylamine] | 6.66 | 
Nc1ncnc2c1nc(Sc1cccc(OC(F)F)c1)n2CCc1ccccc1Cl [Example 258, 9-[2-(2-Chlorophenyl)ethyl]-8-{[3-(difluoromethoxy)phenyl]thio}-9H-purin-6-amine] | < 4.60 | 
Nc1ncn(CCC2CC3CCC(C2)O3)c2nc(Sc3cc4c(cc3Br)OCO4)nc1-2 (stereo not drawn) [Example 606] |  | 49.00%
CC(C)(C)OC(=O)N1CCCC(CCn2c(Sc3cc4c(cc3Br)OCO4)nc3c(N)ncnc32)C1 (stereo not drawn) [Example 346, tert-Butyl 3-(2-{6-amino-8-[(6-bromo-1,3-benzodioxol-5-yl)thio]-9H-purin-9-yl}ethyl)piperidine-1-carboxylate] | 6.49 | 
Nc1ncnc2c1nc(Sc1cc3c(cc1Br)OCO3)n2CC[C@H]1CCCCN1 [Example 475, 8-[(6-Bromo-1,3-benzodioxol-5-yl)thio]-9-{2-[(2R)-piperidin-2-yl]ethyl}-9 H-purin-6-amine] | 6.76 | 
COc1ccc([N+](=O)[O-])cc1Sc1nc2c(N)ncn(CCc3ccccc3Cl)c-2n1 [Example 319, 3-[2-(2-Chlorophenyl)ethyl]-8-[(2-methoxy-5-nitrophenyl)thio]-3H-purin-6-amine] |  | 27.0%
CC(C)NC(=O)N1CCC(CCn2c(Sc3cc4c(cc3Br)OCO4)nc3c(N)ncnc32)CC1 [Example 432, 4-(2-{6-Amino-8-[(6-bromo-1,3-benzodioxol-5-yl)thio]-9H-purin-9-yl}ethyl)-N-isopropylpiperidine-1-carboxamide] | 7.19 | 
COc1ccc(OC)c(Sc2nc3c(N)ncn(CCC4CCN(C(=O)OC(C)(C)C)CC4)c-3n2)c1 [Example 343, tert-Butyl 4-(2-{6-amino-8-[(2,5-dimethoxyphenyl)thio]-3H-purin-3-yl}ethyl)piperidine-1-carboxylate] |  | 0%
COc1ccc(OC)c(Sc2nc3c(N)ncn(CCc4ccc(OC)c(OC)c4)c-3n2)c1 [Example 22, 3-[2-(3,4-dimethoxy-phenyl)-ethyl]-8-(2,5-dimethoxy-phenylsulfanyl)-3H-purin-6-ylamine] | < 5.00 | 
CC(C)(C)OC(=O)N1CCCC[C@H]1C(=O)N1CCC(CCn2c(Sc3cc4c(cc3Br)OCO4)nc3c(N)ncnc32)CC1 [Example 732, tert-Butyl(2S)-2-{[4-(2-{6-amino-8-[(6-bromo-1,3-benzodioxol-5-yl)thio]-9H-purin-9-yl}ethyl)piperidin-1-yl]carbonyl}piperidine-1-carboxylate] | < 5.30 | 
COC(=O)c1ccnc(Sc2nc3c(N)ncnc3n2CCC2CCN(C=O)CC2)c1 [Example 542, Methyl 2-({6-amino-9-[2-(1-formylpiperidin-4-yl)ethyl]-9 H-purin-8-yl}thio)isonicotinate] | < 5.30 | 
COc1ccc(OC)c(Sc2nc3c(N)ncn(CC(c4ccccc4)C(C)C)c-3n2)c1 (stereo not drawn) [Example 114, 8-(2,5-dimethoxy-phenylsulfanyl)-3-(3-methyl-2-phenyl-butyl)-3H-purin-6-ylamine] |  | 14%
